Results reported in ChEMBL document CHEMBL2203139, “Synthetic bicyclic iminosugar derivatives fused thiazolidin-4-one as new potential HIV-RT inhibitors” (Bioorg Med Chem Lett, 2012).
pIC50: −log10 of the molar value.

biological target: Human immunodeficiency virus type 1 reverse transcriptase (Human immunodeficiency virus 1, UniProt Q72547); assay: Inhibition of HIV1 reverse transcriptase incubated for 1 hr by colorimetric assay

pIC50	SMILES
4.89	O=C1CS[C@H]2[C@H](O)[C@H](O)[C@H](O)CN12
4.72	O=C1CS[C@@H]2[C@H](O)[C@H](O)[C@H](O)CN12
5.37	O=C1S[C@H]2[C@H](O)[C@H](O)[C@H](O)CN2C1=O
4.99	O=C1C[S+]([O-])[C@H]2[C@H](O)[C@H](O)[C@H](O)CN12 (some centres not stated)
5.76	O=C1C(O)S[C@H]2[C@H](O)[C@H](O)[C@H](O)CN12 (some centres not stated)
5.28	O=C1S[C@@H]2[C@H](O)[C@H](O)[C@H](O)CN2C1=O
5.61	O=C1C[S+]([O-])[C@@H]2[C@H](O)[C@H](O)[C@H](O)CN12 (some centres not stated)
